The text below walks through data of article PMC9490176 (Frontiers in Pharmacology, 2022).

The subject of series [1] is pyrotinib metabolism in rat liver microsomes (RLMs). The series is described as follows: In vitro drug-drug interaction study: azole inhibition of pyrotinib metabolism (M1 formation) in RLMs. Type of series: in vitro ADME, Sprague-Dawley (SD) rat. The note with it: for IC50: 0.3 mg/ml RLMs, 1 mM NADPH, 37°C, 30 min, n = 3; for Ki / αKi: RLMs, pyrotinib 1, 2, 4, 8 µM, Lineweaver-Burk analysis. On the procedure: The rats were anesthetized with 10% chloral hydrate after 12 h of starvation. […] The rat liver tissue was then accurately removed and transferred to Petri dishes at 0–4°C. The tissues were homogenized in 0.15 mol/L KCl-PBS buffer and stored at 4°C. The homogenate (CR30NX, Eppendorf, Germany) was centrifuged at 9000 rpm at 4°C for 30 min. The supernatant was transferred to another tube and was centrifuged at 105000 rpm at 4°C for 60 min. The precipitate containing liver microsomes was removed and suspended in 0.15 mol/L KCl-PBS buffer (containing 0.25 mol/L sucrose) and stored at −80°C for later use. The liver microsomal concentration was 8.838 mg/ml after the determination with the BCA protein quantification kit (Thermo Scientific, Waltham, MA, United States).
Waters Acquity UPLC I-Class (Waters, USA) was used to separate pyrotinib and midazolam. A binary solvent manager (BSM) and sample manager with a flow-through needle (SM-FTN) were used in the UPLC system. The metabolites’ effective separation was achieved using Acquity UPLC HSS T3 (100 × 2.1 mm, 1.8 μm particle size) (Waters Corporation, Milford, MA, USA) with a mobile phase of acetonitrile (solvent A) and 0.1% formic acid water containing 20 mmol ammonium acetate (solvent B). The gradient program was set as following: 0–0.3 min 10–30% A; 0.3–1 min 30–95% A; 1–2 min 95% A; 2–2.3 min 95–10% A. The mobile phase’s flow rate was 0.4 mL/min, the column temperature was set as 40 °C, and the injection volume was 2 μL. The XEVO TQD triple quadrupole mass spectrometer was equipped with an electrospray ionization (ESI) source, and the multiple reaction monitoring (MRM) mode was selected for quantification. The data were collected using the Mass lynx 4.1 software (Waters Corp.). Mass spectral data were obtained in positive electrospray mode (ESI+) in MRM mode. Nitrogen was used as desolvation (1000 L/h) and cone gases (50 L/h). The ion monitoring voltage conditions were as follows: capillary voltage, 2.5 kV; source temperature, 150°C; desolvation temperature, 500°C. Various reaction monitoring methods were used for quantitative analysis.
200 µl of the incubation mixture was set up as following: 0.3 mg/ml RLMs, 100 mM potassium phosphate buffer (pH 7.4), 1 mM NADPH, and three azole antifungal drugs. […] For fluconazole and itraconazole, the concentrations of them were all adjusted to 0.01, 0.1, 1, 5, 10, 50, and 100 µM. […] The ingredients were combined and pre-warmed for 5 min at 37°C. The reaction was initiated with NADPH and incubated at 37°C for 30 min. Then, 200 µl of acetonitrile-midazolam solution (containing midazolam 200 ng/ml) was added and the mixture was vortexed for 2 min to stop the reaction. After been centrifuged at 13000 rpm for 5 min, 2 µl aliquot of the supernatant was then used for the UPLC-MS/MS analysis.
GraphPad Prism 7.0 software (GraphPad Software Inc.) was used to calculate the enzyme kinetic parameters of substrates which include Vmax, Km, IC50, Ki, and αKi values. The enzyme inhibition mode was obtained using the Linear Lineweaver-Burk plots. The PK characteristics, maximal plasma concentration (Cmax), time to peak plasma concentration (Tmax), apparent volume of distribution (Vz/F), area under the plasma concentration-time curve (AUC), elimination half-life (t1/2), plasma clearance (Cl/F), and mean residence time (MRT), were calculated using DAS (Drug and Statistics) software (Version 3.2.8, The People’s Hospital of Lishui, China). The one-way ANOVA and a Dunnet’s multiple range test were used for the statistical comparisons within groups with SPSS software (Version 25.0; SPSS Inc.). Statistical significance was set at p < 0.05.

Series [2] is described as follows: In vivo pharmacokinetics of pyrotinib in rats with or without azole pretreatment. On the set-up: species or system Sprague-Dawley rats. The conditions noted are these: rat, 40 mg/kg azole for 7 days, then 8 mg/kg pyrotinib oral. The protocol:
Male Sprague-Dawley rats (180–220 g) were supplied by the Experimental Animal Center of Wenzhou Medical University. The animals were placed in a controlled environment of 20–26°C and 55 ± 15% relative humidity under a 12 h light-dark cycle. Except for the 12-h fasting period before the PK study, all rats were fed a standard rodent diet and freely consumed tap water. All experimental procedures and protocols were reviewed and approved by the Animal Care and Use Committee of the Wenzhou Medical University (No. wydw 2019-650), following the Guidelines for The Care and Use of Laboratory Animals. […] After the last administration of the three azoles or 0.5% CMC-Na (control group), a single dose of 8 mg/kg pyrotinib was administered orally to all rats in each group. Each group consisted of 6 rats. The azole antifungal medication was dissolved in 0.5% carboxymethylcellulose sodium solution (CMC-Na). […] The plasma was obtained by centrifuging the blood samples at 4000 rpm for 10 min at 4°C and stored at −80°C until analysis. The frozen plasma samples were thawed at room temperature and uniformly mixed; 50 μL of plasma sample was removed and mixed with 150 μL acetonitrile-midazolam solution (containing midazolam 200 ng/ml) to precipitate the proteins, followed by vortexing for 30 s and centrifuging at 13,000 rpm for 5 min. Then 150 μL of the supernatant was collected and placed into UPLC vials with 2 μL of sample was subjected to UPLC-MS/MS analysis. GraphPad Prism 7.0 software (GraphPad Software Inc.) was used to calculate the enzyme kinetic parameters of substrates which include Vmax, Km, IC50, Ki, and αKi values. The enzyme inhibition mode was obtained using the Linear Lineweaver-Burk plots. The PK characteristics, maximal plasma concentration (Cmax), time to peak plasma concentration (Tmax), apparent volume of distribution (Vz/F), area under the plasma concentration-time curve (AUC), elimination half-life (t1/2), plasma clearance (Cl/F), and mean residence time (MRT), were calculated using DAS (Drug and Statistics) software (Version 3.2.8, The People’s Hospital of Lishui, China). The one-way ANOVA and a Dunnet’s multiple range test were used for the statistical comparisons within groups with SPSS software (Version 25.0; SPSS Inc.). Statistical significance was set at p < 0.05.

Details of series [3]: method as in Shi et al., 2011. The note with it: with ketoconazole compared with ruxolitinib alone; ref Shi et al., 2011; cited from earlier work.
Series [4] is described as follows: Stability evaluation in rat plasma (UPLC-MS/MS method validation). Type of series: in vitro ADME. The conditions noted are these: n = 6. From the text: The test method was extensively verified regarding precision, accuracy, and stability, according to the EMA (European Medicines Agency) 2011 and FDA (Food and Drug Administration) 2018 criteria. In six replicates, quality control (QC) samples were generated at low, medium, and high concentrations and were utilized to validate the procedure. This method was designed to conform to EMA and FDA regulatory requirements for bioanalytical methods.

In series [1], `OC(Cn1cncn1)(Cn1cncn1)c1ccc(F)cc1F` [fluconazole, Fluconazole] showed an IC50 of 11600 nM, a Ki of 15100 nM and a αKi of 19.01 µM.

Take `CCC(C)n1ncn(-c2ccc(N3CCN(c4ccc(OCC5COC(Cn6cncn6)(c6ccc(Cl)cc6Cl)O5)cc4)CC3)cc2)c1=O` (centres unmarked) [itraconazole, Itraconazole]: in series [1], the IC50 is 270 nM, the Ki turned out to be 496 nM and the αKi amounted to 0.334 µM. Besides, in series [2], the “inhibitory effect on pyrotinib in vivo” value was “no inhibitory effect”.

In the case of `N#CC[C@H](C1CCCC1)n1cc(-c2ncnc3[nH]ccc23)cn1` [ruxolitinib], the “increase of plasma exposure” value in series [3] is 91%.

For `CCOc1cc2ncc(C#N)c(Nc3ccc(O)c(Cl)c3)c2cc1NC(=O)/C=C/[C@@H]1CCCN1C` [Pyrotinib M1, O-depicolyl pyrotinib], the “Stability in rat plasma, RE” value in series [4] (4°C, 24 h, high concentration (pyrotinib 4500, pyrotinib M1 0.75 μM)) stood at 103.58%; in series [4] (4°C, 24 h, low concentration (pyrotinib 15, pyrotinib M1 0.015 μM)), 104.44%; in series [4] (4°C, 24 h, medium concentration (pyrotinib 150, pyrotinib M1 0.15 μM)), 108.67%; in series [4] (Room temperature, 6 h, high concentration (pyrotinib 4500, pyrotinib M1 0.75 μM)), 108.42%; in series [4] (Room temperature, 6 h, low concentration (pyrotinib 15, pyrotinib M1 0.015 μM)), 102.22%; in series [4] (Room temperature, 6 h, medium concentration (pyrotinib 150, pyrotinib M1 0.15 μM)), 102.44%. Moreover, the “Stability in rat plasma, RE” value in series [4] (−80°C, 7 days, high concentration (pyrotinib 4500, pyrotinib M1 0.75 μM)) is recorded as 104.47%; in series [4] (−80°C, 7 days, low concentration (pyrotinib 15, pyrotinib M1 0.015 μM)), 109.33%; in series [4] (−80°C, 7 days, medium concentration (pyrotinib 150, pyrotinib M1 0.15 μM)) it was 107.56%.

As for `CC(=O)N1CCN(c2ccc(OCC3COC(Cn4ccnc4)(c4ccc(Cl)cc4Cl)O3)cc2)CC1` (centres unmarked) [ketoconazole, Ketoconazole], in series [1], the IC50 is 60 nM, the Ki was found to be 132 nM and the αKi was found to be 0.077 µM.
